The values below come from US11180474B2 (BRISTOL-MYERS SQUIBB COMPANY, priority 2016, dated 2021).

The structures appear in SMILES notation. Counter-ions that a name gives are not always drawn.

By IC50 is commonly meant the midpoint of a concentration-inhibition curve.

This assay deals with T1, human TLR9 (Homo sapiens, UniProt Q9NR96).
T1 construct: host or cells: HEK-Blue cells
T1 sequence (Q9NR96 26-1032): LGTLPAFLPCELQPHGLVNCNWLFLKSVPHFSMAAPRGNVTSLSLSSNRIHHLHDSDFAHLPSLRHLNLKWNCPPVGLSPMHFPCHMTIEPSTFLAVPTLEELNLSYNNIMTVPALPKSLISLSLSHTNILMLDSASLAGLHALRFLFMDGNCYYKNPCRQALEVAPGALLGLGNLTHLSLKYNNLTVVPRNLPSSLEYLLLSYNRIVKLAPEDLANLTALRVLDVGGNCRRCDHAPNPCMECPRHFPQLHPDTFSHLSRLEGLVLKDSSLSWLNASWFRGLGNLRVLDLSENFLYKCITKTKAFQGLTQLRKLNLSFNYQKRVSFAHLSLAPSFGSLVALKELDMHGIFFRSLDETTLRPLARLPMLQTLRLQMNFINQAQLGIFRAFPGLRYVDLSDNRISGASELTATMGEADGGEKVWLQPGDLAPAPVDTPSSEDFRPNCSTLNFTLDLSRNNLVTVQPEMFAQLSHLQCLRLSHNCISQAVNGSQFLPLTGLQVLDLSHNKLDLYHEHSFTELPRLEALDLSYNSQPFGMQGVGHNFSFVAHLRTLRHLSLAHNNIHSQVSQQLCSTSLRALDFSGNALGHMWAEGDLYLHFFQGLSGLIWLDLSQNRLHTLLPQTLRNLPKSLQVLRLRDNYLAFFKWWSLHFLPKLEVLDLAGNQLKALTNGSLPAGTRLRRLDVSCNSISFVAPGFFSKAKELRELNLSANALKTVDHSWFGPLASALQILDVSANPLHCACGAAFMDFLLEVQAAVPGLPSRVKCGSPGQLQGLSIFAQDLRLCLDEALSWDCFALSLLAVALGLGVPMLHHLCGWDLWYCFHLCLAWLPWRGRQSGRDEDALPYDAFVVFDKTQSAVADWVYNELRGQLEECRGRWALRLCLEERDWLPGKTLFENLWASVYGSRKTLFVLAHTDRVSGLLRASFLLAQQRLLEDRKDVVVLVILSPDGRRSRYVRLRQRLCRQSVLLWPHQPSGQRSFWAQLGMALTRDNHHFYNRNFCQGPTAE
The assay is described as follows: TLR9 inhibition reporter assay (HEK-Blue cells, SEAP reporter, ODN2006 stimulation). It counts as cell-based. The note with it: HEK-Blue cells overexpressing human TLR9, ODN2006 5 nM. The procedure, abridged:
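Compound treatment: 30 min, RT, 0.05 nM–50 μM final. Agonist: TLR7 gardiquimod 7.5 μM; TLR8 R848 15.9 μM; TLR9 ODN2006 5 nM. Incubation 22 h, 37 °C, 5% CO2. Readout SEAP, HEK-Blue Detection.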
`CCc1c(-c2ccc(OC)c(OC)c2)[nH]c2ccc(C3CCN(C4CCN(Cc5ccc(C)s5)CC4)CC3)cc12` [Example 140, 2-(3,4-dimethoxyphenyl)-3-ethyl-5-(1′-((5-methylthiophen-2-yl)methyl)-[1,4′-bipiperidin]-4-yl)-1H-indole]: half-maximal inhibition (IC50) required 0.479 µM.

`CNCCN1CCC(c2ccc3c(c2)c(C)c(-c2ccc(OC)c(OC)c2)n3C)CC1` [Example 114, 2-(4-(2-(3,4-dimethoxyphenyl)-1,3-dimethyl-1H-indol-5-yl)piperidin-1-yl)-N-methylethan-1-amine] came in with an IC50 of 0.737 µM.

`COc1ccc(-c2[nH]c3cc(C)c(C4CCN(C5CCN(C(C)C)CC5)CC4)cc3c2C(C)C)cc1OC` [Example 206, 2-(3,4-dimethoxyphenyl)-3-isopropyl-5-(1′-isopropyl-[1,4′-bipiperidin]-4-yl)-6-methyl-1H-indole di trifluoroacetic acid] registered an IC50 of 1 µM. This IC50 and that of the compound before are within 1.5-fold of each other.

Turning to `COc1ccc(-c2[nH]c3ccc(C4CCN(C5CCNCC5)CC4)cc3c2C(C)C)cc1OC` [Example 197, 5-([1,4′-bipiperidin]-4-yl)-2-(3,4-dimethoxyphenyl)-3-isopropyl-1H-indole dihydrochloride], half-maximal inhibition (IC50) required 0.653 µM.

`CCOC(=O)c1c(C)[nH]c(CN2CCC(N3CCC(c4ccc5[nH]c(-c6ccc(OC)c(OC)c6)c(CC)c5c4)CC3)CC2)c1C` [Example 127, ethyl 5-((4-(2-(3,4-dimethoxyphenyl)-3-ethyl-1H-indol-5-yl)-[1,4′-bipiperidin]-1′-yl)methyl)-2,4-dimethyl-1H-pyrrole-3-carboxylate] showed an IC50 of 0.267 µM.

`COc1ccc(-c2[nH]c3ccc(C4CCN(C5CCN(CC(C)C)CC5)CC4)cc3c2Cl)cc1OC` [Example 120, 3-chloro-2-(3,4-dimethoxyphenyl)-5-(1′-isobutyl-[1,4′-bipiperidin]-4-yl)-1H-indole di-trifluoroacetic acid] displayed an IC50 of 0.157 µM.

Take `CCc1c(-c2ccc(OC)c(OC)c2)[nH]c2ccc(C3CCN(C4CCN(Cc5ccn(C)n5)CC4)CC3)cc12` [Example 133, 2-(3,4-dimethoxyphenyl)-3-ethyl-5-(1′-((1-methyl-1H-pyrazol-3-yl)methyl)-[1,4′-bipiperidin]-4-yl)-1H-indole]: the IC50 turned out to be 0.657 µM.

On to `CCc1c(-c2ccc(OC)c(OC)c2)[nH]c2ccc(C3CCN(C4CCN(Cc5c[nH]cn5)CC4)CC3)cc12` [Example 125, 5-(1′-((1H-imidazol-4-yl)methyl)-[1,4′-bipiperidin]-4-yl)-2-(3,4-dimethoxyphenyl)-3-ethyl-1H-indole], for which the IC50 came to 0.41 µM.

`CCc1c(-c2ccc(OC)c(OC)c2)[nH]c2ccc(C3CCN(C(=O)CN4CCCC(C(=O)N(CC)CC)C4)CC3)cc12` (single isomer, unassigned) [Example 178, 1-(2-(4-(2-(3,4-dimethoxyphenyl)-3-ethyl-1H-indol-5-yl)piperidin-1-yl)-2-oxoethyl)-N,N-diethylpiperidine-3-carboxamide] registered an IC50 of 5.23 µM.

`COc1ccc(-c2[nH]c3ccc(C4CCN(C5CCN(C)CC5)CC4)cc3c2C(C)C)cc1OC` [Example 200, 2-(3,4-dimethoxyphenyl)-3-isopropyl-5-(1′-methyl-[1,4′-bipiperidin]-4-yl)-1H-indole] gave an IC50 of 1.26 µM.

The compound `CCc1c(-c2ccc(OC)c(OC)c2)[nH]c2ccc(C3CCN(C(C)=O)CC3)cc12` [Example 185, 1-(4-(2-(3,4-dimethoxyphenyl)-3-ethyl-1H-indol-5-yl)piperidin-1-yl)ethan-1-one] had an IC50 of 32.4 µM.

Take `COc1ccc(-c2[nH]c3ccc(C4CCN(C5CCN(C(C)C)CC5)CC4)cc3c2C)cc1OC` [Example 10, 2-(3,4-dimethoxyphenyl)-5-(1′-isopropyl-[1,4′-bipiperidin]-4-yl)-3-methyl-1H-indole]: half-maximal inhibition (IC50) was put at 0.202 µM. This IC50 is about 160-fold lower than that of the compound before.

The compound `CCc1c(-c2ccc(OC)c(OC)c2)[nH]c2ccc(C3CCN(C4CCN(Cc5cc(C)nn5C)CC4)CC3)cc12` [Example 132, 2-(3,4-dimethoxyphenyl)-5-(1′-((1,3-dimethyl-1H-pyrazol-5-yl)methyl)-[1,4′-bipiperidin]-4-yl)-3-ethyl-1H-indole] registered an IC50 of 0.695 µM.

The compound `CCc1c(-c2ccc(OC)c(OC)c2)[nH]c2ccc(C3CCN(C4CCN(Cc5cnc(C)[nH]5)CC4)CC3)cc12` [Example 153, 2-(3,4-dimethoxyphenyl)-3-ethyl-5-(1′-((2-methyl-1H-imidazol-5-yl)methyl)-[1,4′-bipiperidin]-4-yl)-1H-indole] came in with an IC50 of 0.547 µM. This IC50 and that of the compound before are within 1.5-fold of each other.

As to `CCc1c(-c2ccc(OC)c(OC)c2)[nH]c2ccc(C3CCN(C4CCN(Cc5coc(C)n5)CC4)CC3)cc12` [Example 126, 4-((4-(2-(3,4-dimethoxyphenyl)-3-ethyl-1H-indol-5-yl)-[1,4′-bipiperidin]-1′-yl)methyl)-2-methyloxazole], the midpoint of inhibition, the IC50, lay at 0.481 µM.

As for `CCc1c(-c2ccc(OC)c(OC)c2)[nH]c2ccc(C3CCN(C(=O)CN4CC[C@@H](O)C4)CC3)cc12` [Example 173, (R)-1-(4-(2-(3,4-dimethoxyphenyl)-3-ethyl-1H-indol-5-yl)piperidin-1-yl)-2-(3-hydroxypyrrolidin-1-yl)ethan-1-one], half-maximal inhibition (IC50) was put at 2.24 µM.

In the case of `CNCCN1CCC(c2cc3c(C(C)C)c(-c4ccc(OC)c(OC)c4)[nH]c3cc2C)CC1` [Example 207, 2-(4-(2-(3,4-dimethoxyphenyl)-3-isopropyl-6-methyl-1H-indol-5-yl)piperidin-1-yl)-N-methylethan-1-amine], the IC50 was 2.29 µM.

`CCc1c(-c2ccc(OC)c(OC)c2)[nH]c2ccc(C3CCNCC3)cc12` [Example 122, 2-(3,4-dimethoxyphenyl)-3-ethyl-5-(piperidin-4-yl)-1H-indole] showed an IC50 of 1.41 µM.

On to `COc1ccc(-c2[nH]c3ccc(C4CCN(C(=O)CNC5CCC(N(C)C)CC5)CC4)cc3c2C(C)C)cc1OC` (centres unmarked) [Example 215, 1-(4-(2-(3,4-dimethoxyphenyl)-3-isopropyl-1H-indol-5-yl)piperidin-1-yl)-2-((4-(dimethylamino)cyclohexyl)amino)ethan-1-one], for which it took 2.02 µM to reach half-maximal inhibition (IC50).

Compound `CCc1c(-c2ccc(OC)c(OC)c2)[nH]c2ccc(C3CCN(C4CCN(Cc5csnn5)CC4)CC3)cc12` [Example 130, 4-((4-(2-(3,4-dimethoxyphenyl)-3-ethyl-1H-indol-5-yl)-[1,4′-bipiperidin]-1′-yl)methyl)-1,2,3-thiadiazole] gave an IC50 of 6.23 µM. Against the preceding compound, the IC50 is about 3.1-fold higher.

Turning to `COc1ccc(-c2[nH]c3ccc(C4CCN(C(=O)CNC5(CO)CCCC5)CC4)cc3c2C(C)C)cc1OC` [Example 213, 1-(4-(2-(3,4-dimethoxyphenyl)-3-isopropyl-1H-indol-5-yl)piperidin-1-yl)-2-((1-(hydroxymethyl)cyclopentyl)amino)ethan-1-one], the IC50 is 2.07 µM.

As to `CCc1c(-c2ccc(OC)c(OC)c2)[nH]c2ccc(C3CCN(CCNC)CC3)cc12` [Example 155, 2-(4-(2-(3,4-dimethoxyphenyl)-3-ethyl-1H-indol-5-yl)piperidin-1-yl)-N-methylethanamine di-trifluoroacetic acid], half-maximal inhibition (IC50) required 0.492 µM. This IC50 is about 4.2-fold lower than that of the compound before.

The compound `COc1ccc(-c2[nH]c3ccc(C4CCN(C(=O)CNC(CO)CO)CC4)cc3c2C(C)C)cc1OC` [Example 220, 2-((1,3-dihydroxypropan-2-yl)amino)-1-(4-(2-(3,4-dimethoxyphenyl)-3-isopropyl-1H-indol-5-yl)piperidin-1-yl)ethan-1-one] displayed an IC50 of 5.58 µM.

`CCc1c(-c2ccc(OC)c(OC)c2)[nH]c2ccc(C3CCN(C4CCN(Cc5cc6ccccc6[nH]5)CC4)CC3)cc12` [Example 128, 5-(1′-((1H-indol-2-yl)methyl)-[1,4′-bipiperidin]-4-yl)-2-(3,4-dimethoxyphenyl)-3-ethyl-1H-indole] showed an IC50 of 0.947 µM.

In turn, `CCc1c(-c2ccc(OC)c(OC)c2)[nH]c2ccc(C3CCN(C4CCN(Cc5ccc(-c6ccccc6)o5)CC4)CC3)cc12` [Example 143, 2-(3,4-dimethoxyphenyl)-3-ethyl-5-(1′-((5-phenylfuran-2-yl)methyl)-[1,4′-bipiperidin]-4-yl)-1H-indole] gave an IC50 of 0.73 µM.

`CCc1c(-c2ccc(OC)c(OC)c2)[nH]c2ccc(C3CCN(C(=O)C(C)(C)OC(C)=O)CC3)cc12` [Example 175, 1-(4-(2-(3,4-dimethoxyphenyl)-3-ethyl-1H-indol-5-yl)piperidin-1-yl)-2-methyl-1-oxopropan-2-yl acetate] gave an IC50 of 14.1 µM. This IC50 lies about 19-fold higher than the previous one.
